Test results taken from patent US20040023972A1, “Use of substituted imidazo[1,2-a]-pyridin-, -pyrimidin-and-pyrazin-3-yl-amine derivatives in the preparation of medicaments for inhibiting NOS” (Gruenenthal GmbH, priority 2000, published 2004).

Molecular target: T1, NO synthase (Rattus norvegicus, UniProt P29476)
T1 construct: the supernatant was then removed by decantation and frozen in portions at −80° C; from tissue; host or cells: rat cerebellum, 20,000 g supernatant of homogenate
Assay: HTS-NOS assay (NOS assay): conversion of radioactive arginine, cation-exchanger filter plate
Format: biochemical
Conditions: for inhibition at 10 µM: read-out: HTS-NOS assay: % inhibition (10 μM)
How it was run: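 Rat cerebellum supernatant as NOS source, incubated with radiolabelled arginine plus cofactors including NADPH at 25 °C for 5-60 min depending on enzyme activity. Unconverted arginine was trapped on a cation-exchange filter plate, citrulline washed out, and bound arginine counted by scintillation; % inhibition versus no-compound reactions.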

| SMILES | inhibition at 10 µM [%] | HTS-NOS assay: % inhibition (10 μM) [%] |
| --- | --- | --- |
| Cc1cccn2c(NC(C)(C)C)c(-c3ccccn3)nc12 [Example 120, Tert-butyl-(8-methyl-2-pyridin-2-yl-imidazo[1,2-a]pyridin-3-yl)-amine] | 56 |  |
| Cc1cccn2c(NC3CCCCC3)c(-c3ccco3)nc12 [Example 121, Cyclohexyl-(2-furan-2-yl-8-methyl-imidazo[1,2-a]pyridin-3-yl)-amine] | 53 |  |
| C#[N+]CCCCCCNc1c(-c2cccc3ccccc23)nc2cc(C)ccn12 [Example 122, Methylidyne-[6-(7-methyl-2-naphthalen-1-yl-imidazo[1,2-a]pyridin-3-ylamino)-hexyl]-ammonium] |  | 53 |
| Cc1cccn2c(NC(C)(C)C)c(C3CCCCC3)nc12 [Example 123, Tert-butyl-(2-cyclohexyl-8-methyl-imidazo[1,2-a]pyridin-3-yl)-amine] | 53 |  |
| Cc1ccc2nc(-c3ccncc3)c(NC(C)(C)CC(C)(C)C)n2c1 [Example 124, (6-Methyl-2-pyridin-4-yl-imidazo[1,2-a]-pyridin-3-yl)-(1,1,3,3-tetramethyl-butyl)-amine] | 68 |  |
| Cc1ccc2nc(-c3cccnc3)c(NC(C)(C)C)n2c1 [Example 125, Tert-butyl-(6-methyl-2-pyridin-3-yl-imidazo[1,2-a]pyridin-3-yl)-amine] | 51 |  |
| Cc1ccn2c(NC(C)(C)CC(C)(C)C)c(-c3cccnc3)nc2n1 [Example 126, (7-Methyl-2-pyridin-3-yl-imidazo[1,2-a]-pyrimidin-3-yl)-(1,1,3,3-tetramethyl-butyl)-amine] | 50 |  |
| Cc1ccc2nc(-c3ccc(C(=O)O)s3)c(NC(C)(C)C)n2c1 [Example 127, 5-(3-Tert-butylamino-6-methyl-imidazo[1,2-a]pyridin-2-yl)-thiophene-2-carboxylic acid] | 52 |  |
| C#[N+]CCCCCCNc1c(-c2cccc3ccccc23)nc2cc(C)cc(C)n12 [Example 128, [6-(5,7-Dimethyl-2-naphthalen-1-yl-imidazo[1,2-a]pyridin-3-ylamino)-hexyl]-methylidyne-ammonium] |  | 63 |
| Cc1cc(C)n2c(Nc3c(C)cccc3C)c(-c3cccc(O)c3)nc2c1 [Example 129, 3-[3-(2,6-Dimethyl-phenylamino)-5,7-dimethyl-imidazo[1,2-a]pyridin-2-yl]-phenol] | 61 |  |
| Cc1ccccc1-c1nc2c(C)cccn2c1Nc1c(C)cccc1C [Example 130, (2,6-Dimethyl-phenyl)-(8-methyl-2-o-tolyl-imidazo[1,2-a]pyridin-3-yl)-amine] | 58 |  |
| [C-]#[N+]CCCCCCNc1c(-c2cccc(O)c2)nc2c(C)cccn12 [Example 131, {6-[2-(3-Hydroxy-phenyl)-8-methyl-imidazo[1,2-a]pyridin-3-ylamino]-hexyl}-methylidyne-ammonium] |  | 55 |
| Cc1ccn2c(Nc3c(C)cccc3C)c(-c3ccc(CO)o3)nc2n1 [Example 132, {5-[3-(2,6-Dimethyl-phenylamino)-7-methyl-imidazo[1,2-a]pyrimidin-2-yl]-furan-2-yl}-methanol] | 52 |  |
| Cc1ccc(-c2nc3c(C)cccn3c2NC(C)(C)CC(C)(C)C)cc1 [Example 133, (8-Methyl-2-p-tolyl-imidazo[1,2-a]pyridin-3-yl)-(1,1,3,3-tetramethyl-butyl)-amine] | 52 |  |
| Cc1ccc2nc(-c3ccc(Cl)cc3Cl)c(Nc3c(C)cccc3C)n2c1 [Example 134, [2-(2,4-Dichlorophenyl)-6-methyl-imidazo[1,2-a]pyridin-3-yl]-(2,6-dimethyl-phenyl)-amine] | 56 |  |
| CCCCNc1c(-c2ccc(Cl)cc2Cl)nc2ccc(C)cn12 [Example 135, Butyl-[2-(2,4-dichloro-phenyl)-6-methyl-imidazo[1,2-a]pyridin-3-yl]-amine] | 50 |  |
| CCCCNc1c(-c2ccc(N(C)C)c3ccccc23)nc2cnccn12 [Example 136, Butyl-[2-(4-dimethylamino-naphthalen-1-yl)-imidazo[1,2-a]pyrazin-3-yl]-amine] | 56 |  |
| [C-]#[N+]CCCCCCNc1c(-c2ccccc2Br)nc2cc(C)ccn12 [Example 137, {6-[2-(2-Bromo-phenyl)-7-methyl-imidazo[1,2-a]pyridin-3-ylamino]-hexyl}-methylidyne-ammonium] |  | 52 |
| CCCCNc1c(-c2ccccc2OC)nc2ccc(C)cn12 [Example 138, Butyl-[2-(2-methoxy-phenyl)-6-methyl-imidazo[1,2-a]pyridin-3-yl]-amine] | 52 |  |
| Cc1cccn2c(NC(C)(C)CC(C)(C)C)c(C3CCCCC3)nc12 [Example 139, (2-Cyclohexyl-8-methyl-imidazo[1,2-a]-pyridin-3-yl)-(1,1,3,3-tetramethyl-butyl)-amine] | 51 |  |

| SMILES | inhibition at 10 µM [%] | HTS-NOS assay: % inhibition (10 μM) [%] |
| --- | --- | --- |
| Cc1ccn2c(NC3CCCCC3)c(-c3ccccn3)nc2c1 [Example 140, Cyclohexyl-(7-methyl-2-pyridin-2-yl-imidazo[1,2-a]pyridin-3-yl)-amine] | 55 |  |
| Cc1ccn2c(NC3CCCCC3)c(-c3ccco3)nc2c1 [Example 141, Cyclohexyl-(2-furan-2-yl-7-methyl-imidazo[1,2-a]pyridin-3-yl)-amine] | 64 |  |
| COC(=O)CNc1c(C2CCCCC2)nc2cc(C)cc(C)n12 [Example 142, (2-Cyclohexyl-5,7-dimethyl-imidazo[1,2-a]-pyridin-3-ylamino)-acetic acid methyl ester] | 59 |  |
| CC(=O)N(c1c(-c2ccco2)nc2cc(C)cc(C)n12)C(C)(C)CC(C)(C)C [Example 143, N-(2-furan-2-yl-5,7-dimethyl-imidazo[1,2-a]pyridin-3-yl)-N-(1,1,3,3-tetramethylbutyl)-acetamide] | 68 |  |
| CC(=O)N(c1c(-c2cccnc2)nc2cc(C)ccn12)C(C)(C)C [Example 144, N-tert-butyl-N-(7-methyl-2-pyridin-3-yl-imidazo[1,2-a]pyridin-3-yl)-acetamide] | 59 |  |
| CC(=O)N(c1c(-c2ccco2)nc2cc(C)cc(C)n12)C(C)(C)C [Example 145, N-tert-butyl-N-(2-furan-2-yl-5,7-dimethyl-imidazo[1,2-a]pyridin-3-yl)-acetamide] | 66 |  |
| CC(=O)N(c1c(-c2ccncc2)nc2cc(C)cc(C)n12)C(C)(C)CC(C)(C)C [Example 146, N-(5,7-dimethyl-2-pyridin-4-yl-imidazo[1,2-a]pyridin-3-yl)-N-(1,1,3,3-tetramethyl-butyl)-acetamide] | 59 |  |
| CC(=O)N(c1c(-c2cccnc2)nc2cc(C)cc(C)n12)C(C)(C)CC(C)(C)C [Example 147, N-(5,7-dimethyl-2-pyridin-3-yl-imidazo[1,2-a]pyridin-3-yl)-N-(1,1,3,3-tetramethyl-butyl)-acetamide] | 68 |  |
| CC(=O)N(c1c(C)cccc1C)c1c(-c2ccccc2C)nc2cc(C)cc(C)n12 [Example 148, N-(2,6-dimethyl-phenyl)-N-(5,7-dimethyl-2-o-tolyl-imidazo[1,2-a]pyridin-3-yl)-acetamide] | 57 |  |
| CC(=O)N(c1c(-c2ccco2)nc2cc(C)ccn12)C(C)(C)CC(C)(C)C [Example 149, N-(2-furan-2-yl-7-methyl-imidazo[1,2-a]pyridin-3-yl)-N-(1,1,3,3-tetramethylbutyl)-acetamide] | 55 |  |
| CC(=O)N(c1c(C)nc2cc(C)cc(C)n12)C(C)(C)CC(C)(C)C [Example 150, N-(1,1,3,3-tetramethyl-butyl)-N-(2,5,7-trimethyl-imidazo[1,2-a]pyridin-3-yl)-acetamide] | 60 |  |
| CC(=O)N(c1c(-c2cccs2)nc2cc(C)ccn12)C1CCCCC1 [Example 151, N-cyclohexyl-N-(7-methyl-2-thiophen-2-yl-imidazo[1,2-a]pyridin-3-yl)-acetamide] | 65 |  |
| CC(=O)N(c1c(C)nc2cc(C)cc(C)n12)C(C)(C)C [Example 152, N-tert-butyl-N-(2,5,7-trimethyl-imidazo[1,2-a]pyridin-3-yl)-acetamide] | 66 |  |
| CC(=O)N(c1c(-c2ccc(C(=O)O)s2)nc2cnccn12)C(C)(C)C [Example 153, 5-[3-(acetyl-tert-butyl-amino)-imidazo[1,2-a]pyrazin-2-yl]-thiophene-2-carboxylic acid] | 78 |  |
| CC(=O)N(c1c(-c2ccc(C(=O)O)o2)nc2cc(C)cc(C)n12)C(C)(C)CC(C)(C)C [Example 154, 5-{3-[acetyl-(1,1,3,3-tetramethyl-butyl)-amino]-5,7-dimethyl-imidazo[1,2-a]-pyridin-2-yl}-furan-2-carboxylic acid] | 60 |  |
| CC(=O)N(c1c(-c2ccc(CO)o2)nc2cc(C)cc(C)n12)C(C)(C)CC(C)(C)C [Example 155, N-[2-(5-hydroxymethyl-furan-2-yl)-5,7-dimethyl-imidazo[1,2-a]pyridin-3-yl]-N-(1,1,3,3-tetramethyl-butyl)-acetamide] | 50 |  |
| CC(=O)N(c1c(C)cccc1C)c1c(-c2sccc2Br)nc2cc(C)cc(C)n12 [Example 156, N-[2-(3-bromo-thiophen-2-yl)-5,7-dimethyl-imidazo[1,2-a]pyridin-3-yl]-N-(2,6-dimethyl-phenyl)-acetamide] | 74 |  |
| CC(=O)N(c1c(C2CCCCC2)nc2cc(C)cc(C)n12)C(C)(C)C [Example 157, N-tert-butyl-N-(2-cyclohexyl-5,7-dimethyl-imidazo[1,2-a]pyridin-3-yl)-acetamide] | 63 |  |
| CC(=O)OCc1ccc(-c2nc3cc(C)cc(C)n3c2N(C(C)=O)C2CCCCC2)o1 [Example 158, acetic acid 5-[3-(acetyl-cyclohexyl-amino)-5,7-dimethyl-imidazo[1,2-a]pyridin-2-yl]-furan-2-yl methyl ester] |  | 54 |
